# From PubChem BioAssay (NCI)
#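 Five concentrations, 48 hours, 96-well plates. GI50: concentration for 50% inhibition of growth. At the TGI there is no net growth.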
# Legend:
# Experiment in all cases: DTP human tumour cell line panel, 48 h
# 786-0 renal = system: 786-0 renal
# A498 renal = system: A498 renal
# A549 NSCLC = system: A549 NSCLC
# ACHN renal = system: ACHN renal
# BT-549 breast = system: BT-549 breast
# CAKI-1 renal = system: CAKI-1 renal
# CCRF-CEM leukemia = system: CCRF-CEM leukemia
# COLO 205 colon = system: COLO 205 colon
# DU-145 prostate = system: DU-145 prostate
# EKVX NSCLC = system: EKVX NSCLC
# HCC-2998 colon = system: HCC-2998 colon
# HCT-116 colon = system: HCT-116 colon
# HCT-15 colon = system: HCT-15 colon
# HL-60(TB) leukemia = system: HL-60(TB) leukemia
# HOP-62 NSCLC = system: HOP-62 NSCLC
# HOP-92 NSCLC = system: HOP-92 NSCLC
# HS 578T breast = system: HS 578T breast
# HT29 colon = system: HT29 colon
# IGROV1 ovarian = system: IGROV1 ovarian
# K-562 leukemia = system: K-562 leukemia
# KM12 colon = system: KM12 colon
# LOX IMVI melanoma = system: LOX IMVI melanoma
# M14 melanoma = system: M14 melanoma
# MALME-3M melanoma = system: MALME-3M melanoma
# MCF7 breast = system: MCF7 breast
# MDA-MB-231 breast = system: MDA-MB-231 breast
# MDA-MB-435 = system: MDA-MB-435
# MOLT-4 leukemia = system: MOLT-4 leukemia
# NCI-H226 lung = system: NCI-H226 lung
# NCI-H23 lung = system: NCI-H23 lung
structure (smiles),measurement,setting,value
CCCCCCCCCCCCCCCCCC(=O)[O][Sn]([CH2]CCC)([CH2]CCC)[CH2]CCC,GI50,786-0 renal,152 nM
same,TGI,786-0 renal,305 nM
same,GI50,A498 renal,90.4 nM
same,TGI,A498 renal,232 nM
same,GI50,A549 NSCLC,153 nM
same,TGI,A549 NSCLC,317 nM
same,GI50,ACHN renal,163 nM
same,TGI,ACHN renal,334 nM
same,GI50,BT-549 breast,138 nM
same,TGI,BT-549 breast,287 nM
same,GI50,CAKI-1 renal,52.4 nM
same,TGI,CAKI-1 renal,214 nM
same,GI50,CCRF-CEM leukemia,170 nM
same,GI50,COLO 205 colon,171 nM
same,TGI,COLO 205 colon,373 nM
same,GI50,DU-145 prostate,136 nM
same,TGI,DU-145 prostate,271 nM
same,GI50,EKVX NSCLC,71.3 nM
same,TGI,EKVX NSCLC,297 nM
same,GI50,HCC-2998 colon,139 nM
same,TGI,HCC-2998 colon,279 nM
same,GI50,HCT-116 colon,117 nM
same,TGI,HCT-116 colon,250 nM
same,GI50,HCT-15 colon,146 nM
same,TGI,HCT-15 colon,380 nM
same,GI50,HL-60(TB) leukemia,179 nM
same,TGI,HL-60(TB) leukemia,489 nM
same,GI50,HOP-62 NSCLC,158 nM
same,TGI,HOP-62 NSCLC,332 nM
same,GI50,HOP-92 NSCLC,90.8 nM
same,TGI,HOP-92 NSCLC,273 nM
same,GI50,HS 578T breast,217 nM
same,TGI,HS 578T breast,752 nM
same,GI50,HT29 colon,113 nM
same,TGI,HT29 colon,311 nM
same,GI50,IGROV1 ovarian,154 nM
same,TGI,IGROV1 ovarian,367 nM
same,GI50,K-562 leukemia,142 nM
same,TGI,K-562 leukemia,> 100000 nM
same,GI50,KM12 colon,124 nM
same,TGI,KM12 colon,266 nM
same,GI50,LOX IMVI melanoma,133 nM
same,TGI,LOX IMVI melanoma,380 nM
same,GI50,M14 melanoma,169 nM
same,TGI,M14 melanoma,320 nM
same,GI50,MALME-3M melanoma,141 nM
same,TGI,MALME-3M melanoma,327 nM
same,GI50,MCF7 breast,134 nM
same,TGI,MCF7 breast,267 nM
same,GI50,MDA-MB-231 breast,125 nM
same,TGI,MDA-MB-231 breast,361 nM
same,GI50,MDA-MB-435,149 nM
same,TGI,MDA-MB-435,441 nM
same,GI50,MOLT-4 leukemia,237 nM
same,GI50,NCI-H226 lung,162 nM
same,TGI,NCI-H226 lung,319 nM
same,GI50,NCI-H23 lung,127 nM
